Read-outs that look alike come from different tables or passages of the source.
Tests used:
[1] = biological target: SMARCA2 (Homo sapiens, UniProt P51531); experiment: HiBiT assay for protein degradation, Hela SMARCA2-HiBiT cells (A series); format: cell-based; parameters: Hela cells were genetically modified via CRISPR/Cas9 to fuse HiBiT to the carboxy terminus of SMARCA2; host or cells: HeLa (CRISPR/Cas9 HiBiT knock-in); conditions: for Dmax: read-out: SMARC A2 Hela HiBit Dmax (%); for DC50: read-out: SMARC A2 Hela HiBit DC50;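 for SMARC A2 Hela HiBit Dmax (%): 24 h compound treatment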
Chain of SMARCA2 (P51531 whole entry): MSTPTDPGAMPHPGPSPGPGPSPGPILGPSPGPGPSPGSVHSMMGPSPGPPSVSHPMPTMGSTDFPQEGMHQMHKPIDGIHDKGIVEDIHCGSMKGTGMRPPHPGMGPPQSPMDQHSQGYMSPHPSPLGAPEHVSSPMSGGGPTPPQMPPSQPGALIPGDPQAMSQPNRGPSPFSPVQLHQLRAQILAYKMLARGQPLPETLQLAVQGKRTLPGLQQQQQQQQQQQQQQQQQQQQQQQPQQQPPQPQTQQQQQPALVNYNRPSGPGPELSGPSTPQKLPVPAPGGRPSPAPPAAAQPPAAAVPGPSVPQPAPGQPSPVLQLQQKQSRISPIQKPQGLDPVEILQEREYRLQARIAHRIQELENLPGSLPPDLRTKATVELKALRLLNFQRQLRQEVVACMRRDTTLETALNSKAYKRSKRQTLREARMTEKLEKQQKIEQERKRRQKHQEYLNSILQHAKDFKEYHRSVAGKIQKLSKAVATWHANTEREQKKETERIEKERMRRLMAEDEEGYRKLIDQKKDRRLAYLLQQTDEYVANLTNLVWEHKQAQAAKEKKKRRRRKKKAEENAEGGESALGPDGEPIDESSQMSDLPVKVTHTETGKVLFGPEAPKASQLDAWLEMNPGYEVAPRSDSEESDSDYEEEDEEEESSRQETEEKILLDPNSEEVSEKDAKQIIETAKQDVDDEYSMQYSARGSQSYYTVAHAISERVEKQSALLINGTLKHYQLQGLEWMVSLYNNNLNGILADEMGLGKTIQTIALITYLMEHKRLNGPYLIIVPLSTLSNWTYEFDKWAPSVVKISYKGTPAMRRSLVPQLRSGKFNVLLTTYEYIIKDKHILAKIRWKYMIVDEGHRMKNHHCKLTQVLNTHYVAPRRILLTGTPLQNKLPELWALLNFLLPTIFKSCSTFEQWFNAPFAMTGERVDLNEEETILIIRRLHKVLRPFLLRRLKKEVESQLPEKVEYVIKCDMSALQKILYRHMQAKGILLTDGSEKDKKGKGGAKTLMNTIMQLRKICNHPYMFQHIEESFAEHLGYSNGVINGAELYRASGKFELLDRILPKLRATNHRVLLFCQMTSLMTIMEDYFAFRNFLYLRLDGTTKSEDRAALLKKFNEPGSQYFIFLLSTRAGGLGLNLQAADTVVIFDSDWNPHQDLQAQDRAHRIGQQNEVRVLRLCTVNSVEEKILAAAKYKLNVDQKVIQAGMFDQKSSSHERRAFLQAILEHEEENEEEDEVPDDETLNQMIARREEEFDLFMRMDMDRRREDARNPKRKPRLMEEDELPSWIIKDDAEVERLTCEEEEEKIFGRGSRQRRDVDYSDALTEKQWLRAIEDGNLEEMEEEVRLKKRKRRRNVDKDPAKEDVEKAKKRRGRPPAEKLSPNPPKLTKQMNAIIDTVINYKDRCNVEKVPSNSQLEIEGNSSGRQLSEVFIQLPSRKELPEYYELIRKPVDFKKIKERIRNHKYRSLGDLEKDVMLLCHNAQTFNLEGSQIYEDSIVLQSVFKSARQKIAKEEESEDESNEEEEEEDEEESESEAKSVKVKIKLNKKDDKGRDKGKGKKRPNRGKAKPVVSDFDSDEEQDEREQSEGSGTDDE
Method in brief: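 SMARCA2 degradation was measured in HeLa cells whose endogenous SMARCA2 carries a carboxy-terminal HiBiT tag introduced by CRISPR/Cas9 (Promega CS302365). Cells were maintained in DMEM with FBS and penicillin-streptomycin. SMARCA2 levels were read at the end of the experiment by Nano-Glo® HiBiT lytic luminescence (Promega N3050) and analyzed in GraphPad Prism.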

[2] = biological target: SMARCA4 (Homo sapiens, UniProt P51532); experiment: HiBiT assay for protein degradation, Hela SMARCA4-HiBiT cells (A series); format: cell-based; parameters: fuse HiBiT to the carboxy terminus of SMARCA2 (Promega CS302365) or SMARCA4 (Promega CS3023225); host or cells: HeLa (CRISPR/Cas9 HiBiT knock-in); conditions: for Dmax: read-out: SMARC A4 Hela HiBit Dmax(%); for DC50: read-out: SMARC A4 Hela HiBit DC50
Chain of SMARCA4 (P51532 whole entry): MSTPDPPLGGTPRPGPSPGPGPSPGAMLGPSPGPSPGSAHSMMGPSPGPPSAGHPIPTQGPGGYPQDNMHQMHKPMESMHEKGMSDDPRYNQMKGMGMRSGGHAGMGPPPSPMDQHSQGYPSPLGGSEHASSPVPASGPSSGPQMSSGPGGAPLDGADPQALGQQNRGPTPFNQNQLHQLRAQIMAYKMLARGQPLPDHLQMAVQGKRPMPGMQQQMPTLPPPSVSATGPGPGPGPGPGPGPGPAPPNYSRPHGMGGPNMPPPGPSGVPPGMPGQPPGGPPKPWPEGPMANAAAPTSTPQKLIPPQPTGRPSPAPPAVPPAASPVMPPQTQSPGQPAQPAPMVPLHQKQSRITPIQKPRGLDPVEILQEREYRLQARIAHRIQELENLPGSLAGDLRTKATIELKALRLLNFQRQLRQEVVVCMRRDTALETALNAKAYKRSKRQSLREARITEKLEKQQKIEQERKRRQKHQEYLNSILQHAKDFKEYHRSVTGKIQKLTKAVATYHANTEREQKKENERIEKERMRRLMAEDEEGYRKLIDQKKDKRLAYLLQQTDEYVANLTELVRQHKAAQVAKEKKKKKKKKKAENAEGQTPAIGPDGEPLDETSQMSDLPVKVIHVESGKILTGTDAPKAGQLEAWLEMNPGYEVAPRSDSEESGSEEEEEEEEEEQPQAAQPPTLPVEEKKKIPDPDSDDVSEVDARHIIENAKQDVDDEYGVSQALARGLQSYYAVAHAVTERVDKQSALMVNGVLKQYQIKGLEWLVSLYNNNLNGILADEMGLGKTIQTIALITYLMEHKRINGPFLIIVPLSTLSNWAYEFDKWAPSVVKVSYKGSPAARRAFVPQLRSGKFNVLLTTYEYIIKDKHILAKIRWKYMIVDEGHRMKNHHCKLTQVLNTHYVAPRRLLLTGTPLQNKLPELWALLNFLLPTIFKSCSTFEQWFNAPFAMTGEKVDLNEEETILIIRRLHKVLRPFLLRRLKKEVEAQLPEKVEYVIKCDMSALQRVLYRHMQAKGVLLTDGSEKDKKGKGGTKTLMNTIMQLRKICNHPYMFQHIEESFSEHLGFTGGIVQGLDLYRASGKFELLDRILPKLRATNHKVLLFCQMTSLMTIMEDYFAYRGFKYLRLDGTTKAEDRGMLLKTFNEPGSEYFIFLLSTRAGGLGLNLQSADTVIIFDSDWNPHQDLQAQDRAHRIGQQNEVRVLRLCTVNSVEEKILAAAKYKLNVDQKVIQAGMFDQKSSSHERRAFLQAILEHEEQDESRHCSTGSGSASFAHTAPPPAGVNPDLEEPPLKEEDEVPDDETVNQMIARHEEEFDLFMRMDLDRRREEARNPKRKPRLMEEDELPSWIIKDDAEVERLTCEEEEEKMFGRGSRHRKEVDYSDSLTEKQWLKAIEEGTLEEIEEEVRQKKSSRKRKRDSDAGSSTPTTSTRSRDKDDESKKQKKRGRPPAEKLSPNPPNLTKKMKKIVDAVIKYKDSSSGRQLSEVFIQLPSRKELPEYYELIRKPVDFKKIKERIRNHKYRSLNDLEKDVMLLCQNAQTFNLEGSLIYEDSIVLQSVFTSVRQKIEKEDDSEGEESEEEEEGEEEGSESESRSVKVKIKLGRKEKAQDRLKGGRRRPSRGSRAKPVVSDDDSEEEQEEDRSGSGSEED
Description: Hela cells were genetically modified via CRISPR/Cas9 to fuse HiBiT to the carboxy terminus of SMARCA2 (Promega CS302365) or SMARCA4 (Promega CS3023225). Cells were cultured in DMEM containing 10% FBS and 1% (Vol:Vol) penicillin-streptomycin. […] At the end of experiment, levels of SMARCA2 or SMARCA4 expression were assessed with Nano-Glo® HiBiT Lytic Detection Assay (Promega N3050). IC50 was obtained using the GraphPad Prism data analysis software.

[3] = Hela SMARCA4-HiBiT cells, 24 hours treatment
[4] = Hela SMARCA2-HiBiT cells, 24 hours treatment

Structure (SMILES) | DC50 [1] | DC50 [2] | SMARC A2 Hela HiBit Dmax (%) [1, 4] | SMARC A4 Hela HiBit Dmax(%) [2, 3] | DC50 [1, 4] | Dmax [1, 4] | DC50 [2, 3] | Dmax ([1]; HeLa) | Dmax [2, 3]
Cc1ncsc1-c1ccc([C@H](C)NC(=O)[C@@H]2C[C@@H](O)CN2C(=O)[C@@H](NC(=O)C2CC(CN3CCC(c4ccc5c(c4)C4(CCCCC4)c4nc(=O)c6c(Br)cccc6n4-5)CC3)C2)C(C)(C)C)cc1 (stereo partly drawn) [Compound A20, (2S,4R)-1-((S)-2-(3-((4-(4′-bromo-5′-oxo-5′H-spiro[cyclohexane-1,7′-indolo[1,2-a]quinazolin]-9′-yl)piperidin-1-yl)methyl)cyclobutane-1-carboxamido)-3,3-dimethylbutanoyl)-4-hydroxy-N—((S)-1-(4-(4-methylthiazol-5-yl)phenyl)ethyl)pyrrolidine-2-carboxamide] | < 0.1 µM | > 1 µM |  |  |  |  |  | > 90% | < 50%
Cc1ncsc1-c1ccc([C@H](CN2CCOCC2)NC(=O)[C@@H]2C[C@@H](O)CN2C(=O)[C@@H](NC(=O)C2CC(CN3CCC(c4ccc5c(c4)C4(CCCCC4)c4nc(=O)c6c(Br)cccc6n4-5)CC3)C2)C(C)(C)C)cc1 (stereo partly drawn) [Compound A21, (2S,4R)-1-((S)-2-(3-((4-(4′-bromo-5′-oxo-5′H-spiro[cyclohexane-1,7′-indolo[1,2-a]quinazolin]-9′-yl)piperidin-1-yl)methyl)cyclobutane-1-carboxamido)-3,3-dimethylbutanoyl)-4-hydroxy-N—((R)-1-(4-(4-methylthiazol-5-yl)phenyl)-2-morpholinoethyl)pyrrolidine-2-carboxamide] | 0.1 to 0.5 µM | 0.1 to 0.5 µM | A (A (>90% degradation)) | C (C (50-69% degradation)) |  |  |  |  | 
Cc1ncsc1-c1ccc([C@H](CN2CCOCC2)NC(=O)[C@@H]2C[C@@H](O)CN2C(=O)[C@@H](NC(=O)C23CCC(CN4CCC(c5ccc6c(c5)C5(CCCCC5)c5nc(=O)c7c(Br)cccc7n5-6)CC4)(CC2)C3)C(C)(C)C)cc1 [Compound A22, (2S,4R)-1-((S)-2-(4-((4-(4′-bromo-5′-oxo-5′H-spiro[cyclohexane-1,7′-indolo[1,2-a]quinazolin]-9′-yl)piperidin-1-yl)methyl)bicyclo[2.2.1]heptane-1-carboxamido)-3,3-dimethylbutanoyl)-4-hydroxy-N—((R)-1-(4-(4-methylthiazol-5-yl)phenyl)-2-morpholinoethyl)pyrrolidine-2-carboramide] | < 0.1 µM | < 0.1 µM | A (A (>90% degradation)) | A (A (>90% degradation)) |  |  |  |  | 
Cc1ncsc1-c1ccc([C@H](C)NC(=O)[C@@H]2C[C@@H](O)CN2C(=O)[C@@H](NC(=O)C23CCC(CN4CCC(c5ccc6c(c5)-n5c(nc(=O)c7c(Br)cccc75)C65CCCCC5)CC4)(CC2)C3)C(C)(C)C)cc1 [Compound A23, (2S,4R)-1-((S)-2-(4-((4-(4′-bromo-5′-oxo-5′H-spiro[cyclohexane-1,7′-indolo[1,2-a]quinazolin]-10′-yl)piperidin-1-yl)methyl)bicyclo[2.2.1]heptane-1-carboxamido)-3,3-dimethylbutanoyl)-4-hydroxy-N—((S)-1-(4-(4-methylthiazol-5-yl)phenyl)ethyl)pyrrolidine-2-carboxamide] | < 0.1 µM | 0.1 to 0.5 µM |  |  |  |  |  | > 90% | 70 to 90%
Cc1ncsc1-c1ccc([C@H](CN2CCOCC2)NC(=O)[C@@H]2C[C@@H](O)CN2C(=O)[C@@H](NC(=O)C23CCC(CN4CCC(c5ccc6c(c5)-n5c(nc(=O)c7c(Br)cccc75)C65CCCCC5)CC4)(CC2)C3)C(C)(C)C)cc1 [Compound A24, (2S,4R)-1-((S)-2-(4-((4-(4′-bromo-5′-oxo-5′H-spiro[cyclohexane-1,7′-indolo[1,2-a]quinazolin]-10′-yl)piperidin-1-yl)methyl)bicyclo[2.2.1]heptane-1-carboxamido)-3,3-dimethylbutanoyl)-4-hydroxy-N—((R)-1-(4-(4-methylthiazol-5-yl)phenyl)-2-morpholinoethyl)pyrrolidine-2-carboxamide] | < 0.1 µM | 0.1 to 0.5 µM | A (A (>90% degradation)) | B (B (70-90% degradation)) |  |  |  |  | 
Cc1ncsc1-c1ccc([C@H](C)NC(=O)[C@@H]2C[C@@H](O)CN2C(=O)[C@@H](NC(=O)C23CCC(CN4CCC(c5ccc6c(c5)C5(CCCCC5)c5nc(=O)c7c(Br)cccc7n5-6)CC4)(CC2)CC3)C(C)(C)C)cc1 [Compound A27, (2S,4R)-1-((S)-2-(4-((4-(4′-bromo-5′-oxo-5′H-spiro[cyclohexane-1,7′-indolo[1,2-a]quinazolin]-9′-yl)piperidin-1-yl)methyl)bicyclo[2.2.2]octane-1-carboxamido)-3,3-dimethylbutanoyl)-4-hydroxy-N—((S)-1-(4-(4-methylthiazol-5-yl)phenyl)ethyl)pyrrolidine-2-carboxamide] | < 0.1 µM | 0.501 to 1 µM |  |  |  |  |  | 70 to 90% | 50 to 69%
Cc1ncsc1-c1ccc([C@H](C)NC(=O)[C@@H]2C[C@@H](O)CN2C(=O)[C@@H](NC(=O)C23CCC(CN4CCC(c5ccc6c(c5)-n5c(nc(=O)c7c(Br)cccc75)C65CCCCC5)CC4)(CC2)CC3)C(C)(C)C)cc1 [Compound A29] | < 0.1 µM | > 1 µM |  |  |  |  |  | 70 to 90% | < 50%

Now from value to molecule, other results behind:

DC50 [1] | DC50 [2] | SMARC A2 Hela HiBit Dmax (%) [1, 4] | SMARC A4 Hela HiBit Dmax(%) [2, 3] | DC50 [1, 4] | Dmax [1, 4] | DC50 [2, 3] | Structure (SMILES) | Dmax ([1]; HeLa) | Dmax [2, 3]
 |  |  |  | > 1 µM | < 50% | > 1 µM | CC(C)(C)[C@H](NC(=O)C1(F)CC1)C(=O)N1C[C@H](O)C[C@H]1C(=O)N[C@@H](CCCCCN1CCC(c2ccc3c(c2)C2(CCCCC2)c2nc(=O)c4c(Br)cccc4n2-3)CC1)c1ccc(Cl)cc1 [Compound A25, (2S,4R)—N—((S)-6-(4-(4′-bromo-5′-oxo-5′H-spiro[cyclohexane-1,7-indolo[1,2-a]quinazolin]-9′-yl)piperidin-1-yl)-1-(4-chlorophenyl)hexyl)-1-((S)-2-(1-fluorocyclopropane-1-carboxamido)-3,3-dimethylbutanoyl)-4-hydroxypyrrolidine-2-carboxamide] |  | < 50%
> 1 µM | > 1 µM | D (D (<50% degradation)) | D (D (<50% degradation)) |  |  |  | CC(C)(C)[C@H](NC(=O)C1(F)CC1)C(=O)N1C[C@H](O)C[C@H]1C(=O)N[C@@H](CCCCCN1CCC(c2ccc3c(c2)-n2c(nc(=O)c4c(Br)cccc42)C32CCCCC2)CC1)c1ccc(Cl)cc1 [Compound A26, (2S,4R)—N—((S)-6-(4-(4′-bromo-5′-oxo-5′H-spiro[cyclohexane-1,7′-indolo[1,2-a]quinazolin]-10′-yl)piperidin-1-yl)-1-(4-chlorophenyl)hexyl)-1-((S)-2-(1-fluorocyclopropane-1-carboxamido)-3,3-dimethylbutanoyl)-4-hydroxypyrrolidine-2-carboxamide] |  | 
< 0.1 µM | 0.1 to 0.5 µM | B (B (70-90% degradation)) | C (C (50-69% degradation)) |  |  |  | Cc1ncsc1-c1ccc([C@H](CN2CCOCC2)NC(=O)[C@@H]2C[C@@H](O)CN2C(=O)[C@@H](NC(=O)C23CCC(CN4CCC(c5ccc6c(c5)C5(CCCCC5)c5nc(=O)c7c(Br)cccc7n5-6)CC4)(CC2)CC3)C(C)(C)C)cc1 [Compound A28, (2S,4R)-1-((S)-2-(4-((4-(4′-bromo-5′-oxo-5′H-spiro[cyclohexane-1,7′-indolo[1,2-a]quinazolin]-9′-yl)piperidin-1-yl)methyl)bicyclo[2.2.2]octane-1-carboxamido)-3,3-dimethylbutanoyl)-4-hydroxy-N—((R)-1-(4-(4-methylthiazol-5-yl)phenyl)-2-morpholinoethyl)pyrrolidine-2-carboxamide] |  | 
< 0.1 µM | > 1 µM | B (B (70-90% degradation)) | D (D (<50% degradation)) |  |  |  | Cc1ncsc1-c1ccc([C@H](CN2CCOCC2)NC(=O)[C@@H]2C[C@@H](O)CN2C(=O)[C@@H](NC(=O)C23CCC(CN4CCC(c5ccc6c(c5)-n5c(nc(=O)c7c(Br)cccc75)C65CCCCC5)CC4)(CC2)CC3)C(C)(C)C)cc1 [Compound A30, (2S,4R)-1-((S)-2-(4-((4-(4′-bromo-5′-oxo-5′H-spiro[cyclohexane-1,7′-indolo[1,2-a]quinazolin]-10′-yl)piperidin-1-yl)methyl)bicyclo[2.2.2]octane-1-carboxamido)-3,3-dimethylbutanoyl)-4-hydroxy-N—((R)-1-(4-(4-methylthiazol-5-yl)phenyl)-2-morpholinoethyl)pyrrolidine-2-carboxamide] |  | 

— US20260092071A1, “COMPOUNDS AND COMPOSITIONS AS SMARCA2/4 DEGRADERS AND USES THEREOF” (REGENTS OF THE UNIVERSITY OF MICHIGAN, priority 2022, published 2026)
